Experiment [1] deals with DU145, hormone-independent human prostate carcinoma cells. As to the kind of experiment: Proliferation assay (crystal violet), DU145. Type of experiment: cell-based. As to conditions: Homo sapiens, DU-145, DU145 cells, Method 3; read-out: Inhibition of DU145 cell proliferation, IC50. The protocol:
(§1) Cultivated tumour cells (NCI-H460, human non-small cell lung carcinoma cells, ATCC HTB-177; DU145, hormone-independent human prostate carcinoma cells, ATCC HTB-81; HeLa-MaTu, human cervical carcinoma cells, EPO-GmbH, Berlin; HeLa-MaTu-ADR, multidrug-resistant human cervical carcinoma cells, EPO-GmbH, Berlin; HeLa human cervical tumour cells, ATCC CCL-2; Caco-2 human colorectal carcinoma, ATCC HTB-37; B16F10 mouse melanoma cells, ATCC CRL-6475) were plated at a density of 5000 cells/well (DU145, HeLa-MaTu-ADR), 3000 cells/well (NCI-H460, HeLa-MaTu, HeLa), 1500 cells/well (Caco-2), or 1000 cells/well (B16 F10) in a 96-well multititer plate in 200 μL of their respective growth medium supplemented 10% fetal calf serum. After 24 hours, the cells of one plate (zero-point plate) were stained with crystal violet (see below), while the medium of the other plates was replaced by fresh culture medium (200 μL), to which the test substances were added in various concentrations (0 M, as well as in the range of […]; the final concentration of the solvent dimethylsulfoxide was 0.5%). The cells were incubated for 4 days in the presence of test substances. Cell proliferation was determined by staining the cells with crystal violet: the cells were fixed by adding 20 μL/measuring point of an 11% glutaric aldehyde solution for 15 minutes at room temperature. After three washing cycles of the fixed cells with water, the plates were dried at room temperature. The cells were stained by adding 100 μL/measuring point of a 0.1% crystal violet solution (pH 3.0). After three washing cycles of the stained cells with water, the plates were dried at room temperature. The dye was dissolved by adding 100 μL/measuring point of a 10% acetic acid solution. The absorbance was determined by photometry at a wavelength of 595 nm. The change of cell number, in percent, was calculated by normalization of the measured values to the absorbance values of the zero-point plate (=0%) and the absorbance of the untreated (0 M) cells (=100%). The IC50 values were determined by means of a 4 parameter fit.

A further experiment has as its target CDK2/CycE (Homo sapiens (Human), UniProt P24941). Put plainly: CDK2/CycE kinase assay (TR-FRET). Type of experiment: biochemical. To be noted: Method 2. The method, boiled down: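 Enzyme was GST-tagged human CDK2 with GST-tagged human CycE, expressed in Sf9 insect cells and glutathione-affinity purified. The kinase reaction used a biotinylated peptide substrate, with inhibition measured by TR-FRET.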
In general terms: TR-FRET usually uses a lanthanide donor and a delayed reading to cut background.

The subject of experiment [2] is NCI-H460, human non-small cell lung carcinoma cells. As to the kind of experiment: Proliferation assay (crystal violet), NCI-H460. It counts as cell-based. As to conditions: Homo sapiens, NCI-H460, NCI-H460 cells, Method 3; read-out: Inhibition of NCI-H460 cell proliferation, IC50. The protocol: as §1
For the next experiment, the target named is CDK9/CycT1 (Homo sapiens (Human), UniProt P50750). As to the kind of experiment: CDK9/CycT1 kinase assay (TR-FRET). It counts as biochemical. To be noted: Method 1. In short, it runs like this:
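Recombinant full-length His-tagged human CDK9/CycT1, insect-cell expressed and Ni-NTA purified. Substrate is a biotinylated peptide (biotin-Ttds-linked). Kinase inhibition is read out by TR-FRET.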

The subject of experiment [3] is HeLa-MaTu-ADR, multidrug-resistant human cervical carcinoma cells. Put plainly: Proliferation assay (crystal violet), HeLa-MaTu-ADR. As to conditions: Homo sapiens, HeLa, Method 3, read-out: Inhibition of HeLa/MaTu/ADR cell proliferation, IC50. Type of experiment: cell-based. The protocol:
as §1

The test system of experiment [4] is Caco-2 human colorectal carcinoma. Put plainly: Proliferation assay (crystal violet), Caco-2. It counts as cell-based. As to conditions: Homo sapiens, Caco-2, Caco-2 cells, Method 3; read-out: Inhibition of Caco-2 cell proliferation, IC50. The protocol:
as §1

Experiment [5] has as its system B16F10 mouse melanoma cells. As to the kind of experiment: Proliferation assay (crystal violet), B16F10. Type of experiment: cell-based. To be noted: Mus musculus, B16-F10, B16F10 cells, Method 3; read-out: Inhibition of B16F10 cell proliferation, IC50. The protocol: as §1
Experiment [6] concerns HeLa human cervical tumour cells. Put plainly: Proliferation assay (crystal violet), HeLa. Type of experiment: cell-based. To be noted: Method 3, read-out: Inhibition of HeLa cell proliferation, IC50. The protocol:
as §1

pIC50: −log10 of the molar value. Read-outs that look alike come from different tables or passages of the source.

CDK9/CycT1, sequence (P50750 whole entry): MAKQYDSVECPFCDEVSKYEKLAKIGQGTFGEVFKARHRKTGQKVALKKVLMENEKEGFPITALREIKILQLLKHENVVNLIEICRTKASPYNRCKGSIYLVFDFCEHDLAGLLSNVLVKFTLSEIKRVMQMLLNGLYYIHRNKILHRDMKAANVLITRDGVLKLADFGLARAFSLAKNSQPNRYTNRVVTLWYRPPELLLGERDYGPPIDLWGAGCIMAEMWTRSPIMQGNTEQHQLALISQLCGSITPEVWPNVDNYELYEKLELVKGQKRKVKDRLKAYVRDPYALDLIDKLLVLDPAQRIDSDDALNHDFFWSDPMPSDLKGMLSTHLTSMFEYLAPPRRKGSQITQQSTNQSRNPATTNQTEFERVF
CDK9/CycT1, sequence (O60563 whole entry partner): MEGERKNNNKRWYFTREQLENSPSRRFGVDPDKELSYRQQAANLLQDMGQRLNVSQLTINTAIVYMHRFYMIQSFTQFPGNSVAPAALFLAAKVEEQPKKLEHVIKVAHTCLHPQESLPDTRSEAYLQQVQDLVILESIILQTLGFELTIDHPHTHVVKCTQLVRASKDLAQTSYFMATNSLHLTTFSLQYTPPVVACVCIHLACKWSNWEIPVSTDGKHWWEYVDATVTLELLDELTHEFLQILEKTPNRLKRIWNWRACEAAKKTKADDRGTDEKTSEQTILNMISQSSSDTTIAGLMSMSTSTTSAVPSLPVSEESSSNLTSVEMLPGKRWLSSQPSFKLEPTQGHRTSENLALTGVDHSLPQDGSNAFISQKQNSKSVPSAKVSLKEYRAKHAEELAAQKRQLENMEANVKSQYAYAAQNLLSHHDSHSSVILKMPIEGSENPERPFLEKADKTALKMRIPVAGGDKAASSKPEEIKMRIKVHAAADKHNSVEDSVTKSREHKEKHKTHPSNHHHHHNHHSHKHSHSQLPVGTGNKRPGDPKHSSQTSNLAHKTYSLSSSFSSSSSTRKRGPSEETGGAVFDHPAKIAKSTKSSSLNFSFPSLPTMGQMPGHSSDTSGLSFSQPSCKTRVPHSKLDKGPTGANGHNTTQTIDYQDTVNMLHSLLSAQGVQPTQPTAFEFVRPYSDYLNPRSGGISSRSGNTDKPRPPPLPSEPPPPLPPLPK

Consider `CCOC(=O)N=S(C)(=O)Cc1cccc(Nc2ncnc(-c3cc(F)c(F)cc3OC)n2)c1` (racemic) [Example 9, (rac)-Ethyl [(3-{[4-(4,5-difluoro-2-methoxyphenyl)-1,3,5-triazin-2-yl]amino}benzyl)(methyl)oxido-λ^6-sulfanylidene]carbamate], for which the pIC50 was 6.05 in experiment [1]; 6.16 against CDK2/CycE; 6.01 in experiment [2]; 8.10 on CDK9/CycT1; 6.02 in experiment [3]; 6.10 in experiment [4]. In addition, the pIC50 in experiment [5] was 6.00.
Regarding `CCOC(=O)N=S(C)(=O)Cc1cc(F)cc(Nc2ncnc(-c3ccc(F)cc3OC)n2)c1` (racemic) [Example 51, (rac)-Ethyl [(3-fluoro-5-{[4-(4-fluoro-2-methoxyphenyl)-1,3,5-triazin-2-yl]amino}benzyl)(methyl)oxido-λ^6-sulfanylidene]carbamate], the pIC50 in experiment [1] was 6.62; against CDK2/CycE, 6.37; in experiment [6] (Homo sapiens, HeLa) it was 6.52; in experiment [2], 6.64; in experiment [3], 6.62; in experiment [4], 6.54. For the same compound, the pIC50 in experiment [5] is 6.47.
Take `CS(=N)(=O)Cc1cccc(Nc2ncnc(-c3ccc(F)cc3OCC3CCCCC3)n2)c1` (racemic) [Example 55, (rac)-4-[2-(Cyclohexylmethoxy)-4-fluorophenyl]-N-{3-[(S-methylsulfonimidoyl)methyl]phenyl}-1,3,5-triazin-2-amine]: the pIC50 was 6.00 in experiment [1]; 5.66 on CDK2/CycE; 6.00 in experiment [6] (Homo sapiens, HeLa); 6.01 in experiment [2]; 8.00 on CDK9/CycT1; 6.07 in experiment [3]. In experiment [4], the pIC50 is 6.05.
With `CS(=N)(=O)Cc1cccc(Nc2ncnc(-c3ccc(F)cc3OCCC3CC3)n2)c1` (racemic) [Example 76, (rac)-4-[2-(2-Cyclopropylethoxy)-4-fluorophenyl]-N-{3-[(S-methylsulfonimidoyl)methyl]phenyl}-1,3,5-triazin-2-amine], the pIC50 is 5.49 against CDK2/CycE; 5.96 in experiment [6] (Homo sapiens, HeLa); 7.52 at CDK9/CycT1.
In the same order, the values of `CS(=N)(=O)Cc1cccc(Nc2ncnc(-c3ccc(F)cc3OCc3ccc(F)c(F)c3)n2)c1` (racemic) [Example 80, (rac)-4-{2-[(3,4-Difluorobenzyl)oxy]-4-fluorophenyl}-N-{3-[(S-methylsulfonimidoyl)methyl]phenyl}-1,3,5-triazin-2-amine] are 6.00, 6.14 and 7.89.
For `CS(=N)(=O)Cc1cccc(Nc2ncnc(-c3ccc(F)cc3OCc3cncs3)n2)c1` (racemic) [Example 81, (rac)-4-[4-Fluoro-2-(1,3-thiazol-5-ylmethoxy)phenyl]-N-{3-[(S-methylsulfonimidoyl)methyl]phenyl}-1,3,5-triazin-2-amine] the same measures were 5.82, 6.07 and 7.64.
In the same order, the values of `CS(=N)(=O)Cc1cccc(Nc2ncnc(-c3ccc(F)cc3OCc3ccc(C(F)(F)F)cc3)n2)c1` (racemic) [Example 86, (rac)-4-(4-Fluoro-2-{[4-(trifluoromethyl)benzyl]oxy}phenyl)-N-{3-[(S-methylsulfonimidoyl)methyl]phenyl}-1,3,5-triazin-2-amine] are 5.85, 5.96 and 8.10.
In the case of `CS(=N)(=O)Cc1cccc(Nc2ncnc(-c3ccc(F)cc3OCc3ccon3)n2)c1` (racemic) [Example 93, (rac)-4-[4-Fluoro-2-(1,2-oxazol-3-ylmethoxy)phenyl]-N-{3-[(S-methylsulfonimidoyl)methyl]phenyl}-1,3,5-triazin-2-amine], the pIC50 against CDK2/CycE was 5.70; in experiment [6] (Homo sapiens, HeLa), 6.17; against CDK9/CycT1, 8.15.
Consider `CS(=N)(=O)Cc1cccc(Nc2ncnc(-c3ccc(F)cc3OCC(F)F)n2)c1` (racemic) [Example 95, (rac)-4-[2-(2,2-Difluoroethoxy)-4-fluorophenyl]-N-{3-[(S-methylsulfonimidoyl)methyl]phenyl}-1,3,5-triazin-2-amine], for which the pIC50 against CDK2/CycE is 5.74; in experiment [6] (Homo sapiens, HeLa), 5.96; against CDK9/CycT1 it was 7.68.
With `Cc1cc(COc2cc(F)ccc2-c2ncnc(Nc3cccc(CS(C)(=N)=O)c3)n2)ccc1F` (racemic) [Example 96, (rac)-4-{4-Fluoro-2-[(4-fluoro-3-methylbenzyl)oxy]phenyl}-N-{3-[(S-methylsulfonimidoyl)methyl]phenyl}-1,3,5-triazin-2-amine], the pIC50 on CDK2/CycE is 6.46; in experiment [6] (Homo sapiens, HeLa), 6.00; against CDK9/CycT1 it was 8.52.
In the same order, the values of `CS(=N)(=O)Cc1cccc(Nc2ncnc(-c3ccc(F)cc3OCc3ccc(F)c(Cl)c3)n2)c1` (racemic) [Example 97, (rac)-4-{2-[(3-Chloro-4-fluorobenzyl)oxy]-4-fluorophenyl}-N-{3-[(S-methylsulfonimidoyl)methyl]phenyl}-1,3,5-triazin-2-amine] are 6.70, 6.03 and 8.52.
For `CS(=N)(=O)Cc1cccc(Nc2ncnc(-c3ccc(F)cc3OCCCC(F)(F)F)n2)c1` (racemic) [Example 100, (rac)-4-[4-Fluoro-2-(4,4,4-trifluorobutoxy)phenyl]-N-{3-[(S-methylsulfonimidoyl)methyl]phenyl}-1,3,5-triazin-2-amine], the pIC50 was 5.89 against CDK2/CycE; 6.04 in experiment [6] (Homo sapiens, HeLa); 8.22 on CDK9/CycT1.
In the same order, the values of `CS(=N)(=O)Cc1cccc(Nc2ncnc(-c3ccc(F)cc3OCc3cc(F)c(F)cc3F)n2)c1` (racemic) [Example 103, (rac)-4-{4-Fluoro-2-[(2,4,5-trifluorobenzyl)oxy]phenyl}-N-{3-[(S-methylsulfonimidoyl)methyl]phenyl}-1,3,5-triazin-2-amine] are 5.92, 5.96 and 8.15.
For `CCS(=N)(=O)Cc1cccc(Nc2ncnc(-c3ccc(F)cc3OC)n2)c1` (racemic) [Example 108, (rac)-N-{3-[(S-ethylsulfonimidoyl)methyl]phenyl}-4-(4-fluoro-2-methoxyphenyl)-1,3,5-triazin-2-amine] the same measures were 6.00, 6.00 and 8.10.
In the same order, the values of `COc1cc(F)ccc1-c1ncnc(Nc2ccc(Cl)c(CS(C)(=N)=O)c2)n1` (single isomer, unassigned) [Example 59.a, N-{4-Chloro-3-[(S-methylsulfonimidoyl)methyl]phenyl}-4-(4-fluoro-2-methoxyphenyl)-1,3,5-triazin-2-amine] are 5.54, 5.96 and 7.60.
Turning to `COc1cc(F)ccc1-c1ncnc(Nc2ccc(Cl)c(CS(C)(=N)=O)c2)n1` (single isomer, unassigned) [Example 59.b, N-{4-Chloro-3-[(S-methylsulfonimidoyl)methyl]phenyl}-4-(4-fluoro-2-methoxyphenyl)-1,3,5-triazin-2-amine], the pIC50 is 5.74 on CDK2/CycE, 5.96 in experiment [6] and 7.48 against CDK9/CycT1.

Values taken from patent publication US9669034B2, “4-aryl-N-phenyl-1,3,5-triazin-2-amines containing a sulfoximine group” (BAYER INTELLECTUAL PROPERTY GMBH, priority 2011, dated 2017).
